Biological target: T1, Angiotensin II Receptor (Bos taurus, UniProt P25104)
T1 construct: The brownish tissue forming the adrenal cortex is scraped off and finely minced with scissors before homogenization; from tissue; host or cells: beef adrenal cortex, microsomal membranes (100,000 x g pellet)
T1 sequence (P25104 1-359): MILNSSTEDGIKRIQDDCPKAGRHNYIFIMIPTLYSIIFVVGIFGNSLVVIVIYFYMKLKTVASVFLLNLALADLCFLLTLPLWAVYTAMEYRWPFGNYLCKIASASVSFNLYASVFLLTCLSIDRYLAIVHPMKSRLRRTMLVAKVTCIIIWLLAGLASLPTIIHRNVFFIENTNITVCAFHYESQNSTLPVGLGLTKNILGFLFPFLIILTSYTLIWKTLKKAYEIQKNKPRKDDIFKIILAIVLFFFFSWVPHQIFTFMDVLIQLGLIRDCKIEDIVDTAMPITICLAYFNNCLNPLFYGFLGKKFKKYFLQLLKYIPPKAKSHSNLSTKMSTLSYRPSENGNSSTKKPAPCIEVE
Assay: Receptor binding assay: binding of [^125 I](Sar^1,Ile^8)AngII
Conditions: beef adrenal cortex membranes, 60 min, room temperature
Text: Beef adrenals are obtained from a local slaughter house (Maxwell-Cohen). [^125 I](Sar^1,Ile^8)AngII, S. A. 2200 Ci/mmole, is purchased from Dupont (NEN®, Boston, Mass.). All unlabeled AngII analogs, Dimethylsulfoxide (DMSO), nucleotides, bovine serum albumin (BSA) are purchased from Sigma Chemical Co., St. Louis, Mo. U.S.A.
Approximately sixteen (16) to twenty (20) beef adrenal glands are processed as follows: fresh adrenal glands received on crushed ice are cleaned of fatty tissues and the tough membranes encapsulating the glands are removed and discarded. […] A 100 ul aliquot is withdrawn and the protein content of the preparation is determined by the Lowry's method (Lowry, O. H., Rosebrough, N. P., Farr, A. L. and Randall, R. J., Protein measurement with Polin phenol reagent. J. Biol. Chem., […], 265-275, 1951). […]
The binding of [^125 I](Sar^1 Ile^8)AngII to microsomal membranes is initiated by the addition of reconstituted membranes (1:10 vols.) in freshly made 50.0 mM Tris.HCl buffer, pH 7.4 containing 0.25% heat inactivated bovine serum albumin (BSA): 80 ul membrane protein (10 to 20 ug/assay) to wells already containing 100 ul of incubation buffer (as described above) and 20 ul [^125 I](Sar^1 Ile^8)AngII (Specific Activity, 2200 Ci/mmole). Non-specific binding is measured in the presence of 1.0 uM unlabeled (Sar^1,Ile^8)AngII, added in 20 ul volume. […]

IC50: 41 nM
Compound: CCCCc1nc2ccc(C(O)CC3CCCN3)cc2c(=O)n1Cc1ccc(-c2ccccc2-c2nnn[nH]2)cc1 (racemic) [Example 80, CIS-(+/-)-2-Butyl-6-[1-hydroxy-2-(2-pyrrolidinyl)ethyl]-3-[[2'-(1H-tetrazol-5-yl)[1,1'-biphenyl]-4-yl]methyl] -4(3H)-quinazolinone]
